Measurements from US4755522A, “Derivatives of N-[3-(2,4,6-trimethoxybenzoyl)propyl]piperidine, and their use in therapeutics” (priority 1986, dated 1988).
Structures can show the parent of a compound that is named as a salt. Where two headings read alike, the source gives them in different places.

Key:
arterial pressure = settings: prior-technique compound; cited from earlier work
[1] = test system: amphetaminic stereotypies; experiment: Amphetaminic stereotypies in the rat; format: in vivo
Protocol: (§1) The compound of example 2 in solution in distilled water (pH 5.5 to 6.0) was administered by intraperitoneal route at a rate of 20 ml/kg in mice (male, NMRI, C.E.R. January) and of 5 ml/kg to rats (male, CD1, Sprague Dawley, Charles River).

intergroup aggressivity = experiment: Intergroup aggressivity; settings: in vivo
Protocol: as §1

reserpinic hypothermia = experiment: Reserpinic hypothermia; settings: in vivo
Protocol: as §1

[2] = test system: arrhythmias caused by I.V. injection of adrenaline; experiment: Arrhythmias caused by I.V. adrenaline in dogs with coronary artery previously ligatured; format: in vivo, dog
man = experiment: Anti-depressant effect in man; format: in vivo
cardio-vascular system = experiment: Action on the cardio-vascular system in the anaesthetized dog; format: in vivo; settings: for minimal effective dose: Canis lupus familiaris, read-out: dose from which heart rate is significantly reduced
Protocol: (b) Action on the cardio-vascular system (in the dog).
(§2) 3 dogs (average weight, 12 kg) anaesthetized with nembutal, receive the compound by intra-duodenal route at successive doses of 0.1-0.5-2.5-10 and 20 mg/kg.
The arterial pressure, the cardiac rate, the femoral arterial flow, the vertebral arterial flow, the rectal and skin temperatures are all measured. The coloration of the skin is observed.
(§3) 3 dogs (average weight, 14 kg) anaesthetized with nembutal, received the CRL 41,390 by intra-duodenal route, at successive doses of 0.1-0.5-1-2.5-5-10-20 mg/kg, then a supplementary dose of 10 mg/kg I.V.
The arterial pressure, the cardiac frequency, the femoral arterial flow, the vertebral arterial flow, the rectal and cutaneous temperatures, were measured. The coloration of the skin was observed.

isoprenaline = experiment: Effects of isoprenaline on arterial pressure and cardiac rate after the compound (dog); format: in vivo; settings: after CRL 41,390
Protocol: as §3

noradrenaline = experiment: Hypertension with noradrenaline after the compound (dog); format: in vivo; settings: after CRL 41,390
Protocol: as §2, §3
Hypertension to noradrenaline is not modified: at 2 mcg/kg of noradrenaline, the systolic arterial pressure passes, after administration of the product, from 160 to 290 mmHg/161 to 289 mmHg in the control.

awakened dog = experiment: Anti-arrhythmic action on the awakened dog; format: in vivo
[3] = test system: arrhythmias with aconitine; experiment: Arrhythmias with aconitine in the guinea-pig; format: in vivo
Protocol: The compound was administered by intravenous route at a dose of 10 mg/kg to a series of 10 albino guinea-pigs of 380 to 495 g, anaesthetized with urethane.
5 minutes later, they receive an I.V. perfusion of the product causing arrhythmia at a dosage of 0.09 mg/min. in a volume of 0.6 ml/min.
The compound is compared with quinidine at a dose of 5 mg/kg I>V> and with a series of controls.
Lots are drawn for the treatments.
B--Action on arrhythmias with aconitine.

[4] = I.D. 0.1-20 mg/kg then 10 mg/kg I.V.

Question: For `COc1cc(OC)c(C(=O)CCCN2CCCC(C)C2)c(OC)c1` (centres unmarked) [CRL 41,034, (2,4,6-trimethoxyphenyl)-[3-(3-methylpiperidino)propyl] ketone], which “effect on the arterial pressure” value (arterial pressure) is on record?
Answer: hypotensive effect

Question: For `CCOC(=O)C1CCCN(CCCC(=O)c2c(OC)cc(OC)cc2OC)C1` (centres unmarked) [CRL 41,389, ethyl N-[3-(2,4,6-trimethoxybenzoyl)propyl] nipecotate hydrochloride], which amphetaminic stereotypies [1] is on record?
Answer: moderate potentialization

Question: And the intergroup aggressivity (intergroup aggressivity)?
Answer: reduction of intergroup aggressivity

Question: And the reserpinic hypothermia (reserpinic hypothermia)?
Answer: aggravation of reserpinic hypothermia

Question: And the minimal effective dose ([2]; Canis lupus familiaris, iv, read-out: dose from which arrhythmias are reduced)?
Answer: 2.5 mg/kg

Question: What about the “arrhythmias caused by I.V. adrenaline” value ([2]; from 2.5 mg/kg) of the same molecule?
Answer: reduces arrhythmias

Question: What about the effect in man (man) of the same molecule?
Answer: anti-depressant stimulant

Question: For `COc1cc(OC)c(C(=O)CCCN2CCCC(C(=O)O)C2)c(OC)c1.Cl` (centres unmarked) [CRL 41,390, N-[3-(2,4,6-trimethoxybenzoyl)propyl]-3-piperidine carboxylic acid hydrochloride], which “effect on vertebral flow” value (cardio-vascular system; 20 mg/kg) is on record?
Answer: reduction in the vertebral flow

Question: And the “effect on femoral flow” value (cardio-vascular system; 20 mg/kg, particularly in a dog)?
Answer: slight increase in the femoral flow

Question: What about the minimal effective dose (cardio-vascular system; intraduodenal) of the same molecule?
Answer: 20 mg/kg

Question: What about the minimal effective dose (cardio-vascular system; iv, I.V.) of the same molecule?
Answer: 2.5 mg/kg

Question: And the “effect on rectal and cutaneous temperatures” value (cardio-vascular system; [4])?
Answer: moderately reduced

Question: What about the “effect on the arterial pressure” value (cardio-vascular system; [4]) of the same molecule?
Answer: no effect on the arterial pressure

Question: What about the “effect on heart rate” value (cardio-vascular system; from I.V. 2.5 mg/kg and intraduodenal 20 mg/kg) of the same molecule?
Answer: significantly reduces the heart rate

Question: What about the “diastolic arterial pressure after the product, with isoprenaline” value (isoprenaline; 10 mcg/kg isoprenaline, control 35) of the same molecule?
Answer: 44 mmHg

Question: What about the “cardiac frequency after the product, with isoprenaline” value (isoprenaline; 10 mcg/kg isoprenaline, control 272) of the same molecule?
Answer: 250 beats/min.

Question: And the “effects of isoprenaline on diastolic arterial pressure and cardiac frequency” value (isoprenaline)?
Answer: slightly reduced

Question: What about the “diastolic arterial pressure after the product, before isoprenaline” value (isoprenaline; control 135) of the same molecule?
Answer: 131 mmHg

Question: And the “cardiac frequency after the product, before isoprenaline” value (isoprenaline; control 185)?
Answer: 148 beats/min.

Question: What about the “systolic arterial pressure after the product, with noradrenaline” value (noradrenaline; 2 mcg/kg noradrenaline, control 289) of the same molecule?
Answer: 290 mmHg

Question: What about the hypertension to noradrenaline (noradrenaline) of the same molecule?
Answer: not modified

Question: And the “systolic arterial pressure after the product, before noradrenaline” value (noradrenaline; control 161)?
Answer: 160 mmHg

Question: And the anti-arrhythmic action (awakened dog)?
Answer: no anti-arrhythmic action

Question: Which results are given for `C=C[C@H]1C[N@@]2CC[C@H]1C[C@@H]2[C@@H](O)c1ccnc2ccc(OC)cc12` [quinidine, reference compound]?
Answer: appearance of ventricular tachycardia due to aconitine ([3]; quinidine 5 mg/kg I.V.): significantly retards only the appearance of ventricular tachycardia; retardation of ventricular tachycardia (average) ([3]; quinidine 5 mg/kg I.V.): +30%; retardation compared with the compound according to the invention ([3]; quinidine 5 mg/kg I.V. vs compound 10 mg/kg I.V.): significantly less than that observed with the compound according to the invention
